Measured values as given in article doi:10.1101/2021.11.14.468520v1, “Exploring the kinetic selectivity of antipsychotics for dopamine D2 and 5-HT2A receptors: implications for the prevalence of EPS and receptor occupancy” (biorxiv, 2021).

Columns and labels:
[1] = biological target: T1, human 5-HT2A receptor (5-HT2AR) (Homo sapiens, UniProt P28223); experiment: TR-FRET saturation binding; settings: labelled compound; CHO membranes; […] GppNHp, pH […]; equilibrium, […] min
T1 construct: gene HTR2A; SNAP-tagged (SNAP-Lumi4-Tb labelled) receptor transiently expressed in CHO-K1 cells; membranes; plasmid from CisBio
T1 sequence (P28223 whole entry): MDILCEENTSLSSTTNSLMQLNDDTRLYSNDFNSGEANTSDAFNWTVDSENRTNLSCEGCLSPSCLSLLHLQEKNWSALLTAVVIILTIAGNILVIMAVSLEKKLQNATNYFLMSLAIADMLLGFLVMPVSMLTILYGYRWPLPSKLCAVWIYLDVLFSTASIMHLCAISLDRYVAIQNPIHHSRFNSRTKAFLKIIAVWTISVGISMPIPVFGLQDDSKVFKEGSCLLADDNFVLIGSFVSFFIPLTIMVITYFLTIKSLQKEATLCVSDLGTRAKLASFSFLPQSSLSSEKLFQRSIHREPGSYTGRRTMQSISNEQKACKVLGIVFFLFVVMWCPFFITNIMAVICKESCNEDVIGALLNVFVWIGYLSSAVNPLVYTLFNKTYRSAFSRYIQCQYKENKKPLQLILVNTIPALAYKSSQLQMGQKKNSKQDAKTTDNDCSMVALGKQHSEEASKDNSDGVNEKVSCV

[2] = biological target: T1, human 5-HT2A receptor (5-HT2AR); experiment: TR-FRET equilibrium competition binding
From the text: TR-FRET equilibrium competition binding on human 5-HT2A receptor (5-HT2AR)

[3] = biological target: T1, human 5-HT2A receptor (5-HT2AR); experiment: biochemical; design: species or system CHO; settings: read-out: koff (min^-1)

| Molecule | Kd [1] | Ki [2] | koff [3] |
| --- | --- | --- | --- |
| 4F4PP oxalate-red | 3.98 ± 0.65 nM | – | – |
| CN1CC2c3ccccc3Oc3ccc(Cl)cc3C2C1 (centres unmarked) [Asenapine] | – | 0.661 nM | 0.7 min⁻¹ |
| Cc1nc2n(c(=O)c1CCN1CCC(c3noc4cc(F)ccc34)CC1)CCCC2O (centres unmarked) [Paliperidone] | – | 1.02 nM | 0.23 min⁻¹ |
